Data set [1] can be described thus: Particle size (D90) during manufacturing process. Type of data set: physicochemical.
Data set [2] in a line: Loss on drying (weight loss upon heating). It counts as physicochemical. The following applies: solid held at 40° C. 24 hours, then 125° C. oven one hour. The procedure:
To assess the form of ciprofloxacin samples described in the present disclosure, a comparison experiment is conducted to evaluate the sample's loss of weight upon heating. […] The conditions and results of the experiment are summarized below: Experimental Setup—Loss on Drying: • If suspension: Pipette Cipro suspension onto filter on vacuum filter flask • Transfer filter/dry powder to 40° C. oven, hold 24 hours • Transfer solid to pre-weighed aluminum pan and weigh solid • Transfer pan to 125° C. oven, hold one hour • Weigh again and determine weight loss due to 125° C.

A further data set relates to Staphylococcus aureus. The following applies: cited from earlier work.
Another data set deals with Streptococcus pneumoniae. The following applies: cited from earlier work.
The next data set concerns Haemophilus influenzae. The following applies: cited from earlier work.
For the next data set, the system named is Moraxella catarrhalis. The following applies: cited from earlier work.
The next data set has as its system rats. The following applies: oral doses up to 100 mg/kg/day; cited from earlier work.
The test system of the next data set is Pseudomonas aeruginosa. The following applies: cited from earlier work.

Where two headings read alike, the source gives them in different places.

In the case of `O=C(O)c1cn(C2CC2)c2cc(N3CCNCC3)c(F)cc2c1=O` [Sample 2], in data set [1], the “particle size D90” value is given as “around 60 μm”. In addition, in data set [2], the “Weight Loss on Drying” value is listed as 11.1%.

Take `O=C(O)c1cn(C2CC2)c2cc(N3CCNCC3)c(F)cc2c1=O` [Sample 1]: the “particle size D90” value in data set [1] (listed as Ciprofloxacin free base anhydrous API powder) is listed as “under 15 μm”. In data set [2], the “Weight Loss on Drying” value was determined as 0.1%.

With `O=C(O)c1cn(C2CC2)c2cc(N3CCNCC3)c(F)cc2c1=O` [Ciprofloxacin, 1-cyclopropyl-6-fluoro-1,4-dihydro-4-oxo-7-(1-piperazinyl)-3-quinolinecarboxylic acid], the “antimicrobial activity against isolates” value in the data set on Staphylococcus aureus, in the data set with Streptococcus pneumoniae, with Haemophilus influenzae, in the data set on Moraxella catarrhalis and with Pseudomonas aeruginosa was “active against most isolates” in each case. For the same molecule, in the data set on rats, the impairment of fertility result is on record as “no evidence of impairment”.

The record behind these values is patent publication US11246863B2 (ALK-ABELLÓ, INC., priority 2015, dated 2022).
